Assay results from ChEMBL document CHEMBL2157872, “Trimeric purine nucleoside phosphorylase: exploring postulated one-third-of-the-sites binding in the transition state” (Bioorg Med Chem, 2012).

What was measured:
[1] = biological target: T1, Purine nucleoside phosphorylase (Bos taurus, UniProt P55859); test: Binding affinity to calf recombinant PNP expressed in Escherichia coli BL21 (DE3) by fluorimetric titration analysis
T1 sequence (P55859 whole entry): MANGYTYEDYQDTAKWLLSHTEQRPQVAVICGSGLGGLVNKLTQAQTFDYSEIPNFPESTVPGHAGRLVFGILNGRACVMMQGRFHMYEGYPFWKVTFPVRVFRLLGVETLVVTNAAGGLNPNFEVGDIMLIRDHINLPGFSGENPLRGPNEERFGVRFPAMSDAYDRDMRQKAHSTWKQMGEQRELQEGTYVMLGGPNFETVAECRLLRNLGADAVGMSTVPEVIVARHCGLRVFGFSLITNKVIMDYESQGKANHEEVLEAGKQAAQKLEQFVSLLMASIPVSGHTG

[2] = biological target: T1, Purine nucleoside phosphorylase
[3] = biological target: T2, Purine nucleoside phosphorylase (Bos taurus) (UniProt P55859)
T2 sequence (whole entry): T1 sequence (P55859 whole entry)
Description: Inhibition of bovine PNP using 7-methylguanosine as substrate by spectrophotometric based coupled assay

[4] = biological target: T3, Purine nucleoside phosphorylase (Bos taurus, UniProt P55859, F200W); test: Binding affinity to calf recombinant PNP Phe200Trp mutant expressed in Escherichia coli BL21 (DE3) by competitive binding fluorimetric analysis in presence of DFPP-DG
T3 sequence (P55859 whole entry F200W): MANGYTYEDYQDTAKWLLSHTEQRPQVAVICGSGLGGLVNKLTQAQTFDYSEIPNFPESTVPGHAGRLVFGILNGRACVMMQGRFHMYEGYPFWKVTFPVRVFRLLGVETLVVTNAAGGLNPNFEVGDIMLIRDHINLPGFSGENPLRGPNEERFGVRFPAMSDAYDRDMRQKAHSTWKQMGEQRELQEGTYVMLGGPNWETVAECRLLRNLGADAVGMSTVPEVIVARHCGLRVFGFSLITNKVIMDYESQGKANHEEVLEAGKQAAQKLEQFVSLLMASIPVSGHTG

[5] = biological target: T1, Purine nucleoside phosphorylase; test: Binding affinity to calf recombinant PNP expressed in Escherichia coli BL21 (DE3) by isothermal titration calorimetry/ fluorimetric titration analysis
[6] = biological target: T3, Purine nucleoside phosphorylase
Description: Binding affinity to calf recombinant PNP Phe200Trp mutant expressed in Escherichia coli BL21 (DE3) by fluorimetric titration analysis

[7] = biological target: Purine nucleoside phosphorylase (Bos taurus, UniProt P55859, F159W); test: Binding affinity to calf recombinant PNP Phe159Trp mutant expressed in Escherichia coli BL21 (DE3) by fluorimetric titration analysis
Purine nucleoside phosphorylase (Bos taurus, UniProt P55859, F159W), sequence (P55859 whole entry F159W): as the sequence (P55859 whole entry F200W) above, with F159W, W200F counted along it

SMILES	Kd [2] [nM]	Kieq [3] [µM]	further results
Nc1nc2cc[nH]c2c(=O)[nH]1	160	7.4	Kd [1]: 170 nM
O=c1[nH]cnc2c([C@@H]3N[C@H](CO)[C@@H](O)[C@H]3O)c[nH]c12 [FORODESINE]	0.023		
C[C@@H](Cn1cnc2c(N)nc(N)nc21)OCP(=O)(O)O		6	Kd [4]: 860 nM
O=c1[nH]cnc2nc[nH]c12		2.5	
Nc1nc2[nH]cnc2c(=O)[nH]1		4	
Nc1nc2c(CNCCC(F)(F)P(=O)(O)O)c[nH]c2c(=O)[nH]1		0.0068	Kd [5]: 3.6 nM
Nc1nc2nc[nH]c2c(=O)[nH]1 [GUANINE]	120		Kd [1]: 160 nM; Kd [6]: 160 nM; Kd [7]: 3300 nM
